Data as given in PMC12527922, “Cocaine chemogenetics blunts drug-seeking by synthetic physiology” (Nature, 2025).
Where “and” joins values, the source holds several entries; their conditions need not be identical. Identical values can stand only once.

Target: coca-5HT3 (α7(L141G,G175K,Y210F,Y217F)–5HT3) (Homo sapiens, UniProt P36544, G175K/L141G/Y210F/Y217F)
Test: Membrane potential assay, coca-5HT3 in HEK293
Settings: for Max normalized Response / Response: coca-5HT3; for Max normalized Response: ED Fig 3b; for response at coca-5HT3: between 10-100 µM
[1] = membrane potential assay dose response
[2] = coca5HT3, Choline Conc 1.37174 uM
[3] = coca5HT3, Choline Conc 12.3457 uM
[4] = coca5HT3, Choline Conc 37.037 uM
[5] = coca5HT3, Choline Conc 111.111 uM
[6] = coca5HT3, Choline Conc 333.333 uM

Sequence of coca-5HT3 (α7(L141G,G175K,Y210F,Y217F)–5HT3) (P36544 23-224 L141G/G175K/Y210F/Y217F): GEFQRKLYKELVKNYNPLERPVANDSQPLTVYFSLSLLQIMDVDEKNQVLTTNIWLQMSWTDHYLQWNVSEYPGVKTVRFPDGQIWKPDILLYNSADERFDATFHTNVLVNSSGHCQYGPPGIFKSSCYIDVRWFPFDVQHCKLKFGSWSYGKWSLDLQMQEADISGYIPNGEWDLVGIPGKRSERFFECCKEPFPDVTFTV
Sequence of coca-5HT3 (α7(L141G,G175K,Y210F,Y217F)–5HT3) (P23979 242-489, further chain): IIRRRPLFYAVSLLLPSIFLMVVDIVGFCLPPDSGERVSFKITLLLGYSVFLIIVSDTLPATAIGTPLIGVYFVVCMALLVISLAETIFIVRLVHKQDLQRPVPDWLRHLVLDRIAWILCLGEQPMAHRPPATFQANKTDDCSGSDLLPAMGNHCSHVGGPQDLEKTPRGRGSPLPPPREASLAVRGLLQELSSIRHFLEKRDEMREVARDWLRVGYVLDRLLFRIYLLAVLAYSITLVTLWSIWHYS

Molecule: CC[N+]1(C)[C@@H]2CC(OC(=O)[C@H](CO)c3ccccc3)C[C@H]1[C@@H]1O[C@@H]12 (stereo partly shown) [Oxitroprium]
- Max normalized Response (conc 0.137 uM): 0.04923
- Max normalized Response (conc 3.7 uM): 0.04777
- Max normalized Response (conc 11.1 uM): 0.1339
- Max normalized Response (conc 33.3 uM): 0.03611
- Max normalized Response (conc 100 uM): 0.1339

Molecule: NCCCC(=O)O [GABA]
- Response (conc 0.457247 uM, ED Fig 3a): 0.157
- Response (conc 1.37174 uM, ED Fig 3a): 0.099
- Response (conc 12.3457 uM, ED Fig 3a): 0.041
- Response (conc 37.037 uM, ED Fig 3a): 0.055
- Response (conc 111.111 uM, ED Fig 3a): 0.023
- Response (conc 333.333 uM, ED Fig 3a): 0.05
- Response (conc 1000 uM, ED Fig 3a): 0.066

Molecule: NCC(=O)O [Glycine]
- Response (conc 0.457247 uM, ED Fig 3a): 0.223
- Response (conc 1.37174 uM, ED Fig 3a): 0.03
- Response (conc 12.3457 uM, ED Fig 3a): 0.032
- Response (conc 37.037 uM, ED Fig 3a): 0.042
- Response (conc 111.111 uM, ED Fig 3a): 0.053
- Response (conc 333.333 uM, ED Fig 3a): 0.108
- Response (conc 1000 uM, ED Fig 3a): 0.232

Molecule: CN[C@@H](C)Cc1ccccc1 [methamphetamine]
- Response (conc 0.0137 uM, ED Fig. 2c): 0.198
- Response (conc 0.123 uM, ED Fig. 2c): 0.256
- Response (conc 0.37 uM, ED Fig. 2c): 0.136
- Response (conc 10 uM, ED Fig. 2c): 0.224
- Response (conc 30 uM, ED Fig. 2c): 0.204
- activation of coca-5HT3 [1]: did not activate

Molecule: C[N+](C)(C)CCO [choline]
- EC50 relative to peak physiological levels (EC50 above peak physiological levels): about 100 fold
- Max normalized response, AVG [2]: 0.0611
- Max normalized response, replicates [2]: 0.1043 and 0.06655 and 0.04444 and 0.02913
- Response, dose-response replicates (DR 1-4) [2]: 0.056 and 0.037 and 0.008 and 0.006
- Max normalized response, AVG [3]: 0.06296
- Max normalized response, replicates [3]: 0.05773 and 0.04496 and 0.02778 and 0.1214
- Response, dose-response replicates (DR 1-4) [3]: 0.031 and 0.025 (2×) and 0.005
- Max normalized response, AVG [4]: 0.0516
- Max normalized response, replicates [4]: 0.04283 and 0.03237 and 0.07778 and 0.0534
- Response, dose-response replicates (DR 1-4) [4]: 0.023 and 0.018 and 0.014 and 0.011
- Max normalized response, AVG [5]: 0.04734
- Max normalized response, replicates [5]: 0.03724 and 0.04317 and 0.05556 and 0.0534
- Response, dose-response replicates (DR 1-4) [5]: 0.02 and 0.024 and 0.01 and 0.011
- Max normalized response, AVG [6]: 0.07674
- Max normalized response, replicates [6]: 0.0838 and 0.08993 and 0.05556 and 0.07767
- Response, dose-response replicates (DR 1-4) [6]: 0.045 and 0.05 and 0.01 and 0.016
- Max normalized response, AVG (coca5HT3, Choline Conc 1000 uM): 0.4005
- Max normalized response, replicates (coca5HT3, Choline Conc 1000 uM): 0.4022 and 0.5288 and 0.3556 and 0.3155
- Response, dose-response replicates (DR 1-4) (coca5HT3, Choline Conc 1000 uM): 0.216 and 0.294 and 0.064 and 0.065
- Max normalized response, AVG (coca5HT3, Choline Conc 3000 uM): 1
- Max normalized response, replicates (coca5HT3, Choline Conc 3000 uM): 1
- Response, dose-response replicates (DR 1-4) (coca5HT3, Choline Conc 3000 uM): 0.537 and 0.556 and 0.18 and 0.206
- max response of each dose-response replicate (coca5HT3, Choline, used for normalization): 0.537 and 0.556 and 0.18 and 0.206
- EC50 (half-maximum effective concentration (EC50), HEK293, fluorescence membrane potential assay): 1.21 mM

Molecule: ecgonine
- Response (conc 0.0137174 uM, ED Fig. 2b): 0.052
- Response (conc 0.123457 uM, ED Fig. 2b): 0.065
- Response (conc 0.37037 uM, ED Fig. 2b): 0.073
- Response (conc 1.11111 uM, ED Fig. 2b): 0.07
- Response (conc 3.33333 uM, ED Fig. 2b): 0.053
- Response (conc 10 uM, ED Fig. 2b): 0.084
- Response (conc 30 uM, ED Fig. 2b): 0.084
- activation of coca-5HT3 [1]: not activated

Molecule: C[N+]1(C)[C@@H]2C[C@@H](OC(=O)C(O)(c3cccs3)c3cccs3)C[C@H]1[C@@H]1O[C@@H]12 [Tiotropium]
- Max normalized Response (conc 0.137 uM): 0.05284
- Max normalized Response (conc 3.7 uM): 0.03225
- Max normalized Response (conc 11.1 uM): 0.04379
- Max normalized Response (conc 33.3 uM): 0.159
- Max normalized Response (conc 100 uM): 0.2432

Molecule: CN1[C@@H]2CC[C@H]1C[C@@H](OC(c1ccccc1)c1ccccc1)C2 [Benztropine]
- response at coca-5HT3: substantial response
- Max normalized Response (conc 0.137 uM): 0.05732
- Max normalized Response (conc 3.7 uM): 0.1399
- Max normalized Response (conc 11.1 uM): 0.2931
- Max normalized Response (conc 33.3 uM): 0.5901
- Max normalized Response (conc 100 uM): 1.051

Molecule: C[N+]1(C)[C@@H]2CC[C@H]1C[C@@H](OC(=O)C(CO)c1ccccc1)C2 (stereo partly shown) [Methylatropine]
- response at coca-5HT3: substantial response
- Max normalized Response (conc 0.137 uM): 0.09159
- Max normalized Response (conc 3.7 uM): 0.07315
- Max normalized Response (conc 11.1 uM): 0.365
- Max normalized Response (conc 33.3 uM): 0.7258
- Max normalized Response (conc 100 uM): 0.936

Molecule: N[C@@H](CC(=O)O)C(=O)O [Aspartate]
- Response (conc 0.457247 uM, ED Fig 3a): 0.065
- Response (conc 1.37174 uM, ED Fig 3a): 0.034
- Response (conc 12.3457 uM, ED Fig 3a): 0.025
- Response (conc 37.037 uM, ED Fig 3a): 0.074
- Response (conc 111.111 uM, ED Fig 3a): 0.072
- Response (conc 333.333 uM, ED Fig 3a): 0.088
- Response (conc 1000 uM, ED Fig 3a): 0.232

Molecule: CCCC[N+]1(C)[C@@H]2C[C@@H](OC(=O)[C@H](CO)c3ccccc3)C[C@H]1[C@@H]1O[C@@H]12 (stereo partly shown) [n-Butylscopolamine]
- Max normalized Response (conc 0.137 uM): 0.07428
- Max normalized Response (conc 3.7 uM): 0.05731
- Max normalized Response (conc 11.1 uM): 0.07366
- Max normalized Response (conc 33.3 uM): 0.04125
- Max normalized Response (conc 100 uM): 0.03532

Molecule: CCN(CC)CC(=O)Nc1c(C)cccc1C [Lidocaine]
- Max normalized Response (conc 0.137 uM): 0.1106
- Max normalized Response (conc 3.7 uM): 0.1119
- Max normalized Response (conc 11.1 uM): 0.1369
- Max normalized Response (conc 33.3 uM): 0.1879
- Max normalized Response (conc 100 uM): 0.1519
- activation of coca-5HT3 (up to 100 µM): did not activate

Molecule: COc1ccc2c3c1O[C@H]1C(=O)CC[C@@]4(O)[C@@H](C2)N(C)CC[C@]314 [oxycodone]
- Response (conc 0.0137 uM, ED Fig. 2c): 0.109
- Response (conc 0.123 uM, ED Fig. 2c): 0.086
- Response (conc 0.37 uM, ED Fig. 2c): 0.066
- Response (conc 10 uM, ED Fig. 2c): 0.081
- Response (conc 30 uM, ED Fig. 2c): 0.117
- activation of coca-5HT3 [1]: did not activate

Molecule: CN1[C@@H]2C[C@@H](OC(=O)[C@H](CO)c3ccccc3)C[C@H]1[C@@H]1O[C@@H]12 [Scopolamine]
- Max normalized Response (conc 0.137 uM): 0.06195
- Max normalized Response (conc 3.7 uM): 0.06448
- Max normalized Response (conc 11.1 uM): 0.04953
- Max normalized Response (conc 33.3 uM): 0.06371
- Max normalized Response (conc 100 uM): 0.0598

Molecule: Nc1ncnc2c1ncn2[C@@H]1O[C@H](CO)[C@@H](O)[C@H]1O [adenosine]
- Response (conc 0.457247 uM, ED Fig 3a): 0.126
- Response (conc 1.37174 uM, ED Fig 3a): 0.045
- Response (conc 12.3457 uM, ED Fig 3a): 0.079
- Response (conc 37.037 uM, ED Fig 3a): 0.053

Molecule: C[N+]1(C)[C@@H]2C[C@@H](OC(=O)[C@H](CO)c3ccccc3)C[C@H]1[C@@H]1O[C@@H]12 [Methscopolamine]
- Max normalized Response (conc 0.137 uM): 0.01611
- Max normalized Response (conc 3.7 uM): 0.08959
- Max normalized Response (conc 11.1 uM): 0.03432
- Max normalized Response (conc 33.3 uM): 0.1141
- Max normalized Response (conc 100 uM): 0.3973

Molecule: NCCc1ccc(O)c(O)c1 [Dopamine]
- Response (conc 0.457247 uM, ED Fig 3a): 0.119
- Response (conc 1.37174 uM, ED Fig 3a): 0.062
- Response (conc 12.3457 uM, ED Fig 3a): 0.04
- Response (conc 37.037 uM, ED Fig 3a): 0.017
- Response (conc 111.111 uM, ED Fig 3a): 0.052
- Response (conc 333.333 uM, ED Fig 3a): 0.039
- Response (conc 1000 uM, ED Fig 3a): 0.106

Molecule: NCCc1c[nH]cn1 [Histamine]
- Response (conc 0.457247 uM, ED Fig 3a): 0.136
- Response (conc 1.37174 uM, ED Fig 3a): 0.016
- Response (conc 12.3457 uM, ED Fig 3a): 0.035
- Response (conc 37.037 uM, ED Fig 3a): 0.028
- Response (conc 111.111 uM, ED Fig 3a): 0.056
- Response (conc 333.333 uM, ED Fig 3a): 0.051
- Response (conc 1000 uM, ED Fig 3a): 0.086

Molecule: N[C@H](CO)C(=O)O [D-serine]
- Response (conc 0.457247 uM, ED Fig 3a): 0.104
- Response (conc 1.37174 uM, ED Fig 3a): 0.061
- Response (conc 12.3457 uM, ED Fig 3a): 0.037
- Response (conc 37.037 uM, ED Fig 3a): 0.062
- Response (conc 111.111 uM, ED Fig 3a): 0.111
- Response (conc 333.333 uM, ED Fig 3a): 0.06
- Response (conc 1000 uM, ED Fig 3a): 0.145

Molecule: CCN(CC)CCOC(=O)c1ccc(N)cc1 [Procaine]
- Max normalized Response (conc 0.137 uM): 0.07766
- Max normalized Response (conc 3.7 uM): 0.1325
- Max normalized Response (conc 11.1 uM): 0.1562
- Max normalized Response (conc 33.3 uM): 0.143
- Max normalized Response (conc 100 uM): 0.166
- activation of coca-5HT3 (up to 100 µM): did not activate
